Test results published in patent publication US20210220370A1, “SELECTIVE HDAC8 INHIBITORS AND THEIR USES” (HOCHSCHULE DARMSTADT, priority 2015, published 2021).

Key:
[1] = molecular target: HDAC2 (Homo sapiens, UniProt Q92769); assay: HDAC2 colorimetric assay, substrate Boc-Lys(Ac)-AMC; type: biochemical; conditions: Table 1
[2] = molecular target: HDAC3 (Homo sapiens, UniProt O15379); assay: HDAC3 colorimetric assay, substrate Boc-Lys(Ac)-AMC; type: biochemical; conditions: Table 1
[3] = molecular target: HDAC4 (Homo sapiens, UniProt P56524); type: biochemical; conditions: Table 1
[4] = molecular target: T1, HDAC6 (Homo sapiens, UniProt Q9UBN7); assay: HDAC6 colorimetric assay, substrate Boc-Lys(Ac)-AMC; type: biochemical; conditions: Table 1; read-out: IC50 HDAC6
T1 sequence (Q9UBN7 1-1215): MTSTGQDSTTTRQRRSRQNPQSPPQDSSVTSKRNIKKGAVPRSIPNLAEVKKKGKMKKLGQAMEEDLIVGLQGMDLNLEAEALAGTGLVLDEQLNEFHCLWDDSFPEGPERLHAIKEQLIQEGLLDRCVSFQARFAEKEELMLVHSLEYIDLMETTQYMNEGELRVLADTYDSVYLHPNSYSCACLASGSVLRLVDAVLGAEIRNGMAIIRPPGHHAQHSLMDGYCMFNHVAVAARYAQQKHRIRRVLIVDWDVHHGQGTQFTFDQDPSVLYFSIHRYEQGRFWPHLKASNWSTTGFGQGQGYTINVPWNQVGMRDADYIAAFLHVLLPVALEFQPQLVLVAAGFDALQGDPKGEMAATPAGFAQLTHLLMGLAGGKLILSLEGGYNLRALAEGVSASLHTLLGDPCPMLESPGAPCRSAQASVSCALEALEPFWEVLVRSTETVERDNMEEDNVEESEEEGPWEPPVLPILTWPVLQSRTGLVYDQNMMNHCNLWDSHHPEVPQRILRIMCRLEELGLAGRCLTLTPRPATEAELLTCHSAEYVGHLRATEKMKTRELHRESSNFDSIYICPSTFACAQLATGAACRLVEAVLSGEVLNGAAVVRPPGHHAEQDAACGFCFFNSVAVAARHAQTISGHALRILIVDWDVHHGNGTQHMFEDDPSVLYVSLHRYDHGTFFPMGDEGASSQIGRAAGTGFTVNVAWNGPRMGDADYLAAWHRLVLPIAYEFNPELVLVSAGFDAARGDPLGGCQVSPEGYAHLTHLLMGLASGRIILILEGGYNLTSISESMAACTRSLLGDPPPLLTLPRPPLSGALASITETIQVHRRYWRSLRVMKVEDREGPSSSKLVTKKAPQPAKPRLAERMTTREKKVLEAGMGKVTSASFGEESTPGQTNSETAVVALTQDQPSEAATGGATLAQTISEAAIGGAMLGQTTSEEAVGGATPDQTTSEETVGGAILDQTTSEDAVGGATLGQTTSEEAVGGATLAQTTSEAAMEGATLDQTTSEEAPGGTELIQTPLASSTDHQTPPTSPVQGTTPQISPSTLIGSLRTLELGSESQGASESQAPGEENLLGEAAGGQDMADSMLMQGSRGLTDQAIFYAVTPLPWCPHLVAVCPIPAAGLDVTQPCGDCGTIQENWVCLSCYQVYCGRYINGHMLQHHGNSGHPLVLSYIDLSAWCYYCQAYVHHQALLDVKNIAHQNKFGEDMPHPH

[5] = tested on: uterine leiomyosarcoma cell line SKUT-1; assay: Growth inhibition of cancer cell line, resazurin assay; type: cell-based, Human; conditions: Homo sapiens, SK-UT-1; Table 2, resazurin assay
[6] = tested on: breast cancer cell line MCF-7; assay: as above; type: cell-based, Human; conditions: Homo sapiens, MCF7; Table 2, resazurin assay
[7] = molecular target: HDAC1 (Homo sapiens, UniProt Q13547); assay: HDAC1 colorimetric assay, substrate Boc-Lys(Ac)-AMC
Experimental: 1 nM of HDAC1 was incubated with increasing concentrations of the respective compound for 30 minutes at 30° C. The reaction was initiated by addition of 50 μM of the substrate Boc-Lys(Ac)-AMC. After an incubation of 60 minutes the reaction was stopped by addition of 20 μM SAHA and the deacetylated substrate was converted into a fluorescent product by the addition of trypsin.

[8] = molecular target: HDAC5 (Homo sapiens, UniProt Q9UQL6); assay: HDAC5 colorimetric assay, substrate Boc-Lys(TFA)-AMC
[9] = molecular target: T2, HDAC7 (Homo sapiens, UniProt Q8WUI4); assay: HDAC7 colorimetric assay, substrate Boc-Lys(TFA)-AMC
T2 sequence (Q8WUI4 1-952): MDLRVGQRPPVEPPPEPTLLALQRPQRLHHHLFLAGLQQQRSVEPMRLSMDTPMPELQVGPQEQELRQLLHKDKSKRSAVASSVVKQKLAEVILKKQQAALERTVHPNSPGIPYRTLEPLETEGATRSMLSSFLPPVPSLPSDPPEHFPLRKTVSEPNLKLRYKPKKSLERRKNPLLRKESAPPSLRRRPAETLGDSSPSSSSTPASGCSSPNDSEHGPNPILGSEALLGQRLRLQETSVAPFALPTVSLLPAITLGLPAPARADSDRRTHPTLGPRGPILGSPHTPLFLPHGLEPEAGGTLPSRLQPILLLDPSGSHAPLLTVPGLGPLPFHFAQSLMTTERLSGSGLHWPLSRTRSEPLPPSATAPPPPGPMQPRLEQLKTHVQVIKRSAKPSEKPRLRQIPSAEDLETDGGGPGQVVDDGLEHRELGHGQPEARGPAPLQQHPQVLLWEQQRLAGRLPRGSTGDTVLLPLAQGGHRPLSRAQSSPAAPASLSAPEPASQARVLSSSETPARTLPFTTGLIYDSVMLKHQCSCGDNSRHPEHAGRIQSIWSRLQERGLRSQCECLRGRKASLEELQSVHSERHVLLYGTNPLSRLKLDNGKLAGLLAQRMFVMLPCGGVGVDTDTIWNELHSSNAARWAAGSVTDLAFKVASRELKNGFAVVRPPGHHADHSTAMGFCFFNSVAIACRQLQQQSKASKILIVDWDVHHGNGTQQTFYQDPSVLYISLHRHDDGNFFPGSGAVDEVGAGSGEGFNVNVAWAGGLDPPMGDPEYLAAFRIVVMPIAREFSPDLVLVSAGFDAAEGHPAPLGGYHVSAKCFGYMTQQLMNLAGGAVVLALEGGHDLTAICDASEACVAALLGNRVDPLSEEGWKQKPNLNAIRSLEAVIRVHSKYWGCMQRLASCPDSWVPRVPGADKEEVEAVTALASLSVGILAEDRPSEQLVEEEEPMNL

[10] = molecular target: T3, HDAC8 (Homo sapiens, UniProt Q9BY41); assay: HDAC8 colorimetric assay, substrate Boc-Lys(TFA)-AMC
T3 sequence (Q9BY41 1-377): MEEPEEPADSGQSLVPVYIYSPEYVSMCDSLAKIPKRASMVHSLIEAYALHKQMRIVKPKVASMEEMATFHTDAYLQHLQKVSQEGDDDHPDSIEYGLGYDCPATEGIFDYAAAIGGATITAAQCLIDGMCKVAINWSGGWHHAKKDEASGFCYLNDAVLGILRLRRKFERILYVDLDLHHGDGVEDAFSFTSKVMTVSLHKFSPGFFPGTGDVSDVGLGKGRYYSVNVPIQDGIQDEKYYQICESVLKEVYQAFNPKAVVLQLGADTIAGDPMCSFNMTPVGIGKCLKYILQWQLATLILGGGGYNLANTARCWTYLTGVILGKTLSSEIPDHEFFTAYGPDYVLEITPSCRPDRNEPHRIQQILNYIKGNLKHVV
Experimental: 1 nM of HDAC4 was incubated with increasing concentrations of the respective compound for 30 minutes at 30° C. The reaction was initiated by addition of 20 μM of the substrate Boc-Lys(trifluoracetyl)-AMC. After an incubation of 60 minutes the reaction was stopped by addition of 20 μM SAHA and the deacetylated substrate was converted into a fluorescent product by the addition of trypsin.

[11] = tested on: T cell leukemia cell line JURKAT; assay: Growth inhibition of cancer cell line, resazurin assay; conditions: Homo sapiens, Jurkat, read-out: GI50 JURKAT
Experimental: The following tumor cell lines were used: • Human uterine leiomyosarcoma cell line SKUT-1 (ATCC® HTB114™) • Human T cell leukemia cell line JURKAT (ATCC® TIB152™) • Human breast cancer cell line MCF-7 (ATCC® HTB22™)
Cells were cultured in Dulbecco's modified Eagle's medium (DMEM) supplemented with 10% FCS.

[12] = IC50 for HDAC1, FIG. 3, 50 μM Boc-Lys(Ac)-AMC
[13] = IC50 for HDAC7, FIG. 3, 20 μM Boc-Lys(TFA)-AMC
[14] = IC50 for HDAC8, FIG. 3, 20 μM Boc-Lys(TFA)-AMC

HDAC3, sequence (O15379 whole entry): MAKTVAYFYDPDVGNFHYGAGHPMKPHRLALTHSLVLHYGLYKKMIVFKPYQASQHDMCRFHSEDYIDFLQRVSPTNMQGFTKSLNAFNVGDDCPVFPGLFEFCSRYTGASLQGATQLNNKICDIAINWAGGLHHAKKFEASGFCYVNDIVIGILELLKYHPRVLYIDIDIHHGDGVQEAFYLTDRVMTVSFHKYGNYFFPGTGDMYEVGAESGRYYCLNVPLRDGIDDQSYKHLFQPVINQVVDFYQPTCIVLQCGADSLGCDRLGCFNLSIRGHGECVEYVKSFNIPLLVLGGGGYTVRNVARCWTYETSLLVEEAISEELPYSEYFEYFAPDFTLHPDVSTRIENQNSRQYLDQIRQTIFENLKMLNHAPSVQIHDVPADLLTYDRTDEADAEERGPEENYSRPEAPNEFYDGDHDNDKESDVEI
HDAC3, sequence (Q9Y618 395-489 partner limits assumed): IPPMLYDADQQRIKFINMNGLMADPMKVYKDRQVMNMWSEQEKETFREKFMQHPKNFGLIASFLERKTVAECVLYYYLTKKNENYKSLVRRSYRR
HDAC5, sequence (Q9UQL6 whole entry): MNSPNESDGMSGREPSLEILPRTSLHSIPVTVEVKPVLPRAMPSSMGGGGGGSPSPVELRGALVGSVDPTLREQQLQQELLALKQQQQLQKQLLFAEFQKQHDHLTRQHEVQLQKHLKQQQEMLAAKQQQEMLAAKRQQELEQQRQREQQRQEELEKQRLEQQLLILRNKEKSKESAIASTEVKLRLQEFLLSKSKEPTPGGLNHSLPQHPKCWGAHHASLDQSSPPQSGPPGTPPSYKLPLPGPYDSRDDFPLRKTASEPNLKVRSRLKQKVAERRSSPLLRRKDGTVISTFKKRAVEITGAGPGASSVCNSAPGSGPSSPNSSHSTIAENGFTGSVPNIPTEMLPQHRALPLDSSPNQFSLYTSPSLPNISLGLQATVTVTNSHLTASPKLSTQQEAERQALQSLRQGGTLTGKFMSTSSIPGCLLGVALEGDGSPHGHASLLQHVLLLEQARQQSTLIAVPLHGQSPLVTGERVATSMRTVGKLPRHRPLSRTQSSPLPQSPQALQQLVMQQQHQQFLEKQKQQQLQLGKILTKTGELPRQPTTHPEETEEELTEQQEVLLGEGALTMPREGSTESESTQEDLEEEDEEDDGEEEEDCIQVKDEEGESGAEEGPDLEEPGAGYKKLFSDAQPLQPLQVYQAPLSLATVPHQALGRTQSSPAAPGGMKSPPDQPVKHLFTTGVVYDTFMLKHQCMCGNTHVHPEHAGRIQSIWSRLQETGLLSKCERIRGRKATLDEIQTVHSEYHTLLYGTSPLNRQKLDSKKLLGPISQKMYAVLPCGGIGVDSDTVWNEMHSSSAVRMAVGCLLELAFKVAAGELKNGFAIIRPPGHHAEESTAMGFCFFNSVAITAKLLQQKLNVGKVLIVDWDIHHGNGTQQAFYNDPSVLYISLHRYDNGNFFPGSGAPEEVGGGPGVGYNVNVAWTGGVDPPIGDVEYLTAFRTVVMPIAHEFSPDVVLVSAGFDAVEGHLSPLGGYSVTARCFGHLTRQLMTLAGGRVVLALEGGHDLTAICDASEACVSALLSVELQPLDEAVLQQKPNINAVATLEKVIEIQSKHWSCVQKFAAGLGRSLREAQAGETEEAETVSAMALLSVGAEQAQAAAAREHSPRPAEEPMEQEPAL
HDAC1, sequence (Q13547 whole entry): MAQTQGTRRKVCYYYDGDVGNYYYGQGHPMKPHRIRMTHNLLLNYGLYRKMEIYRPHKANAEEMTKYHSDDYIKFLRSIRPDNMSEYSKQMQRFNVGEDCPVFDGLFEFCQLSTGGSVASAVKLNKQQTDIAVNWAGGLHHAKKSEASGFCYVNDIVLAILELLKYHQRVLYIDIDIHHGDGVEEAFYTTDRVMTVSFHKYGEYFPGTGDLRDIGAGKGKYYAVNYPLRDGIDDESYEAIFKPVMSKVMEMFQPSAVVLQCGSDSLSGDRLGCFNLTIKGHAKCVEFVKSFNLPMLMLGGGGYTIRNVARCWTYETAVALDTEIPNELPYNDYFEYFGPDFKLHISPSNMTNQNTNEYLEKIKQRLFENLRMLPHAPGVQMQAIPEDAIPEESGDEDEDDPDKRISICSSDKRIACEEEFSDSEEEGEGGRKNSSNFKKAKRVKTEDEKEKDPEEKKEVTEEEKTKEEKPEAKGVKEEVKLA
HDAC4, sequence (P56524 whole entry): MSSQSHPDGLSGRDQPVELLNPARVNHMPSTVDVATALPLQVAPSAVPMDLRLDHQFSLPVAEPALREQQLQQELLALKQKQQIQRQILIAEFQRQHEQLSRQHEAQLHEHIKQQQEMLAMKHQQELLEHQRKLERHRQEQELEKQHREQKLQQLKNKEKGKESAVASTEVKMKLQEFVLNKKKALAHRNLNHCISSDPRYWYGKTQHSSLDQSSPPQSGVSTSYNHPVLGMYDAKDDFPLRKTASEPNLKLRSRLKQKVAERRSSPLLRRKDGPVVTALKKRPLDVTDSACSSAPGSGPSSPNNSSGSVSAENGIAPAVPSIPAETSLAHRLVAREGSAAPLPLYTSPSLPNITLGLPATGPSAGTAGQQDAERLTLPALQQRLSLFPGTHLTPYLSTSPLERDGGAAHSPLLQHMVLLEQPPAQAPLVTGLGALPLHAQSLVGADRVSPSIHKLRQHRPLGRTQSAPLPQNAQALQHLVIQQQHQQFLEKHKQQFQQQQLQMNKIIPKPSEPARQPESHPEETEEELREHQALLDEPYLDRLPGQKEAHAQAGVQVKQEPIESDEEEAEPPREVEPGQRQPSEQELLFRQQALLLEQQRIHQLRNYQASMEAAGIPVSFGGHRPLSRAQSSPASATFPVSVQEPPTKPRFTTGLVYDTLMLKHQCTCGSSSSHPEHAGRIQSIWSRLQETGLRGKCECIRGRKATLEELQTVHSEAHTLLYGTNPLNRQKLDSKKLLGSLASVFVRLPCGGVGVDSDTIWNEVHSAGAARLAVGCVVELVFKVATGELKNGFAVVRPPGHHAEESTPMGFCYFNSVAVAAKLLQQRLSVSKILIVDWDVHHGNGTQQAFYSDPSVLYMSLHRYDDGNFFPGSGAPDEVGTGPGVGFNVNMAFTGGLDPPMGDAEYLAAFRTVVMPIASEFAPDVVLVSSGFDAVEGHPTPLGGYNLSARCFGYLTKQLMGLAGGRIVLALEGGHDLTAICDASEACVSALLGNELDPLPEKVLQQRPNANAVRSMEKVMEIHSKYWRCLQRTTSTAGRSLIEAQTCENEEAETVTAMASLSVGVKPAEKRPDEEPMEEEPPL
HDAC2, sequence (Q92769 whole entry): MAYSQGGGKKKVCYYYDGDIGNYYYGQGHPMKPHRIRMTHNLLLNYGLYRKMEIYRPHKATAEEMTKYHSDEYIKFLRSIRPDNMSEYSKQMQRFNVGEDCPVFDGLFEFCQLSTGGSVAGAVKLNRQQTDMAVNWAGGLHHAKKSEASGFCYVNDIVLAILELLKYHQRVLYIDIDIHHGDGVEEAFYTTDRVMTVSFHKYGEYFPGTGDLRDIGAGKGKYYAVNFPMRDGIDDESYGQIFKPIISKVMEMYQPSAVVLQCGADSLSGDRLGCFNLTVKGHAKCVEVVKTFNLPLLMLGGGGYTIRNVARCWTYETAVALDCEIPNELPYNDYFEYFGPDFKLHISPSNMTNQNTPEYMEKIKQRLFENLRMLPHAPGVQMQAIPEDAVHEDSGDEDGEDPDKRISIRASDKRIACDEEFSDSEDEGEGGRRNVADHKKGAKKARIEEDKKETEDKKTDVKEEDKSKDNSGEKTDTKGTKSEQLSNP

Row | Compound | IC50 [1] | IC50 [2] | IC50 [3] | IC50 [4] | GI50 [5] | GI50 [6] | IC50 ([7]; IC50 HDAC1, Table 1) | IC50 [8] | IC50 ([9]; IC50 HDAC7, Table 1) | IC50 ([10]; IC50 HDAC8, Table 1) | GI50 [11] | IC50 [7, 12] | IC50 [9, 13] | IC50 [10, 14]
1 | Cc1cccc2c1C1=NCCCN1C(=N)S2 [Compound 13m, 11-Methyl-3,4-Dihydrobenzo[e]Pyrimido[1,2-c][1,3]Thiazin-6(2H)-Imine] | > 50 µM | 9.6 ± 0.7 µM | 3.2 ± 0.5 µM | 1.3 ± 0.3 µM | 35 ± 2 µM | 179 ± 66 µM | 3.7 ± 0.4 µM | 0.038 ± 0.002 µM | 1.3 ± 0.2 µM | 0.0043 ± 0.0005 µM | 23 ± 2 µM |  |  | 
2 | N=C1Sc2c(F)cccc2C2=NCCN12 [Compound 13i, 7-Fluoro-2H-Benzo[e]Imidazo[1,2-c][1,3]Thiazin-5(3H)-Imine] | > 50 µM | > 50 µM | > 50 µM | > 50 µM | 109 ± 29 µM | 16 ± 3 µM | > 50 µM | > 50 µM | > 50 µM | 9.2 ± 0.3 µM | 24 ± 3 µM |  |  | 
3 | CN(C)c1ccc2c(c1)SC(=N)N1CCCN=C21 [Compound 13d, 6-Imino-N,N-Dimethyl-2,3,4,6-Tetrahydrobenzo[e]Pyrimido[1,2-c][1,3]Thiazin-9-Imine] | > 50 µM | > 50 µM | > 50 µM | 14 ± 1 µM | 106 ± 21 µM | 200 ± 58 µM |  | 12 µM | 2 ± 0.5 µM | 0.072 ± 0.003 µM | 153 ± 28 µM | 34 µM | 2.1 µM | 0.071 µM
4 | N=C1Sc2ccc(Cl)cc2C2=NCCCN12 [Compound 13e, 10-Chloro-3,4-Dihydrobenzo[e]Pyrimido[1,2-c][1,3]Thiazin-6(2H)-Imine] | > 50 µM | 20 ± 1 µM | 5.7 ± 0.3 µM | 1.2 ± 0.4 µM | > 1000 µM | > 1000 µM |  | 1 µM |  | 0.0059 ± 0.0003 µM | 56 ± 9 µM | 7.9 µM | 0.08 µM | 0.0055 µM
